Experimental data taken from patent US8143212B2 (Vicuron Pharmaceuticals Inc., priority 2002, dated 2012).

Tested on: S. aureus
Experiment: Murine thigh-infection model (time kill, dosing regimen, PK/PD; Tables 31, 32);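 note: mouse thigh infection, bacterial counts per thigh after therapy, dose-response curves fitted with a maximum effect model to give static and 1 or 2 log kill exposures, mean of 4 thighs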
Settings: for 1 log kill mg/kg / 2 log kill mg/kg: total dose over 6 days
Method: The murine thigh-infection model was used for all organisms throughout the various studies. In this well-established model, approximately 10^6 Cfu of the study organisms are injected into one or both thighs (in 0.1 ml) two hours before starting therapy. The number of organisms in the thigh at the start of therapy in the following studies varied from 10^7.15-7.59 cfu/thigh.
Each point represents the mean of 4 thighs. Five dose levels, ranging 16-fold were used. The dose levels used in the study against S. aureus ranged from 5 to 80 mg/kg.
In these studies, multiple dosing regimens varying the dose and dosage interval were administered intraperitoneally in 0.2 ml volumes to groups of mice for 144 h (6 days). The dosing intervals chosen were 12, 24, 36, and 72 hours. Five different doses (two-fold increases) were used. Study against S. aureus utilized total dose (mg/kg/6d) levels ranging from 30 to 480 mg/kg/6d. […] Each point represents the mean of 4 thighs.
Each of the dose-response curves was also mathematically characterized using a maximum effect model. […] From these parameters we could then calculate the dose required to produce a net bacteriostatic effect over the 144 hour treatment period as well as the doses necessary to produce a 1 and 2 log-reduction in organism burden.
We determined which PK/PD parameter correlated best with efficacy by relating the number of bacteria in thigh at the end of 144 hours of therapy with [1] the peak/MIC ratio, [2] the AUC/MIC ratio, and [3] the percentage of the dosing interval that serum levels exceed the MIC for each of the dosage regimens studied. The PK/PD parameter values for those doses not specifically studied were extrapolated from the values of the nearest studied doses. […] Each point represents the mean of four thighs. […] The data illustrated in these figures were also analyzed by the same maximum dose-response model mentioned above, except that the different PK/PD parameters were used in place of the dose. The R^2 represents the coefficient of determination observed for the relationship between efficacy and each PK/PD parameter.

`CN[C@H]1C(=O)N[C@@H]2Cc3ccc(cc3)Oc3cc4cc(c3O[C@@H]3O[C@H](C(=O)O)[C@@H](O)[C@H](O)[C@H]3NC(=O)CCCCCCCCC(C)C)Oc3ccc(cc3Cl)[C@@H](O)[C@@H]3NC(=O)[C@H](NC(=O)[C@@H]4NC(=O)[C@@H](NC2=O)c2cc(cc(O)c2Cl)Oc2cc1ccc2O)c1ccc(O)c(c1)-c1c(O[C@H]2O[C@H](CO)[C@@H](O)[C@H](O)[C@@H]2O)cc(O)cc1[C@@H](C(=O)NCCCN(C)C)NC3=O` [Dalbavancin] was tested, and the “2 Log Kill f24AUC/MIC” value (SA25923, q 72 h regimen) was 367, the “2 Log Kill mg/kg/24 h” value (SA25923, q 72 h regimen) was 214 mg/kg/24 h and the “Static Effect f24AUC/MBC” value (SA25923, q 72 h regimen) was 66. For the same compound, the “Static Effect f24AUC/MIC” value (SA25923, q 72 h regimen) was 274, the “Static Effect mg/kg/72 h” value (SA25923, q 72 h regimen) was 160 mg/kg/72 h and the “1 log kill mg/kg” value (SA29213, q 24 h) was 267 mg/kg. The “1 log kill mg/kg” value (SA29213, q 36 h) was 36 mg/kg, the “2 log kill mg/kg” value (SA29213, q 36 h) was 122 mg/kg and the “1 log kill mg/kg” value (SA29213, q 72 h) was 31 mg/kg. The “2 log kill mg/kg” value (SA29213, q 72 h) was 128 mg/kg, the “Static Effect f24AUC/MBC” value (SA31005, q 24 h regimen) was 242 and the “Static Effect f24AUC/MIC” value (SA31005, q 24 h regimen) was 483. The “Static Effect mg/kg/24 h” value (SA31005, q 24 h regimen) was 49.3 mg/kg/24 h, the “1 Log Kill f24AUC/MBC” value (SA31005, q 72 h regimen) was 163 and the “1 Log Kill f24AUC/MIC” value (SA31005, q 72 h regimen) was 325. For the same compound, the “1 Log Kill mg/kg/24 h” value (SA31005, q 72 h regimen) was 94.6 mg/kg/24 h, the “2 Log Kill f24AUC/MBC” value (SA31005, q 72 h regimen) was 217 and the “2 Log Kill f24AUC/MIC” value (SA31005, q 72 h regimen) was 364. The “2 Log Kill mg/kg/24 h” value (SA31005, q 72 h regimen) was 127 mg/kg/24 h, the “Static Effect f24AUC/MBC” value (SA31005, q 72 h regimen) was 112 and the “Static Effect f24AUC/MIC” value (SA31005, q 72 h regimen) was 223. The “Static Effect mg/kg/72 h” value (SA31005, q 72 h regimen) was 67.7 mg/kg/72 h, the “1 Log Kill f24AUC/MBC” value (SA33591, q 24 h regimen) was 58.3 and the “1 Log Kill f24AUC/MIC” value (SA33591, q 24 h regimen) was 121. For the same compound, the “1 Log Kill mg/kg/24 h” value (SA33591, q 24 h regimen) was 27.7 mg/kg/24 h, the “2 Log Kill f24AUC/MBC” value (SA33591, q 24 h regimen) was 74.3 and the “2 Log Kill f24AUC/MIC” value (SA33591, q 24 h regimen) was 157. The “2 Log Kill mg/kg/24 h” value (SA33591, q 24 h regimen) was 33.5 mg/kg/24 h, the “Static Effect f24AUC/MBC” value (SA33591, q 24 h regimen) was 46 and the “Static Effect f24AUC/MIC” value (SA33591, q 24 h regimen) was 96.2. The “Static Effect mg/kg/24 h” value (SA33591, q 24 h regimen) was 22.3 mg/kg/24 h, the “1 Log Kill f24AUC/MBC” value (SA33591, q 72 h regimen) was 76.6 and the “1 Log Kill f24AUC/MIC” value (SA33591, q 72 h regimen) was 160. The “1 Log Kill mg/kg/24 h” value (SA33591, q 72 h regimen) was 93 mg/kg/24 h, the “2 Log Kill f24AUC/MBC” value (SA33591, q 72 h regimen) was 94 and the “2 Log Kill f24AUC/MIC” value (SA33591, q 72 h regimen) was 195. For the same compound, the “2 Log Kill mg/kg/24 h” value (SA33591, q 72 h regimen) was 114 mg/kg/24 h, the “Static Effect f24AUC/MBC” value (SA33591, q 72 h regimen) was 59 and the “Static Effect f24AUC/MIC” value (SA33591, q 72 h regimen) was 123. For the same compound, the “Static Effect mg/kg/72 h” value (SA33591, q 72 h regimen) was 74 mg/kg/72 h, the “1 Log Kill f24AUC/MBC” value (SA307109, q 72 h regimen) was 12.9 and the “1 Log Kill f24AUC/MIC” value (SA307109, q 72 h regimen) was 108. For the same compound, the “1 Log Kill mg/kg/24 h” value (SA307109, q 72 h regimen) was 34 mg/kg/24 h, the “2 Log Kill f24AUC/MBC” value (SA307109, q 72 h regimen) was 14.6 and the “2 Log Kill f24AUC/MIC” value (SA307109, q 72 h regimen) was 121. The “2 Log Kill mg/kg/24 h” value (SA307109, q 72 h regimen) was 37 mg/kg/24 h, the “Static Effect f24AUC/MBC” value (SA307109, q 72 h regimen) was 11.3 and the “Static Effect f24AUC/MIC” value (SA307109, q 72 h regimen) was 94. For the same compound, the “Static Effect mg/kg/72 h” value (SA307109, q 72 h regimen) was 31 mg/kg/72 h, the “1 Log Kill f24AUC/MBC” value (SA Smith, q 24 h regimen) was 119 and the “1 Log Kill f24AUC/MIC” value (SA Smith, q 24 h regimen) was 248. For the same compound, the “1 Log Kill mg/kg/24 h” value (SA Smith, q 24 h regimen) was 50.7 mg/kg/24 h, the “2 Log Kill f24AUC/MBC” value (SA Smith, q 24 h regimen) was 173 and the “2 Log Kill f24AUC/MIC” value (SA Smith, q 24 h regimen) was 361. The “2 Log Kill mg/kg/24 h” value (SA Smith, q 24 h regimen) was 73.5 mg/kg/24 h, the “Static Effect f24AUC/MBC” value (SA Smith, q 24 h regimen) was 75 and the “Static Effect f24AUC/MIC” value (SA Smith, q 24 h regimen) was 156. For the same compound, the “Static Effect mg/kg/24 h” value (SA Smith, q 24 h regimen) was 33.5 mg/kg/24 h, the “1 Log Kill f24AUC/MBC” value (SA Smith, q 72 h regimen) was 78.0 and the “1 Log Kill f24AUC/MIC” value (SA Smith, q 72 h regimen) was 163. For the same compound, the “1 Log Kill mg/kg/24 h” value (SA Smith, q 72 h regimen) was 95 mg/kg/24 h, the “2 Log Kill f24AUC/MBC” value (SA Smith, q 72 h regimen) was 22 and the “2 Log Kill f24AUC/MIC” value (SA Smith, q 72 h regimen) was 254. The “2 Log Kill mg/kg/24 h” value (SA Smith, q 72 h regimen) was 148 mg/kg/24 h, the “Static Effect f24AUC/MBC” value (SA Smith, q 72 h regimen) was 46.1 and the “Static Effect f24AUC/MIC” value (SA Smith, q 72 h regimen) was 96. For the same compound, the “Static Effect mg/kg/72 h” value (SA Smith, q 72 h regimen) was 59 mg/kg/72 h, the drop in cfu (all strains, 6 day study) was over 4 log10 and the “free drug 24 h AUC/MIC associated with a static effect” value (every 24 h dosing) was 265±143. The “free drug 24 h AUC/MIC associated with a static effect” value (every 72 h dosing) was 160±67, the “free drug AUC/MIC required for efficacy” value (over the 6 days) was about 1000 and the extent of killing (single doses, highest doses studied) was over 2 log.
